Source: patent US20120071505A1, “SUBSTITUTED PYRIDINE DERIVATIVES, PHARMACEUTICAL COMPOSITIONS, AND METHODS OF USE TO TREAT OXIDATIVE STRESS” (HIGH POINT PHARMACEUTICALS, LLC, priority 2009, published 2012)

System: HMOX1 mRNA expression
Test: Oxidative stress gene expression (mRNA) protocol: heme oxygenase mRNA induction in NHLF cells (Quantigene Plex 2.0, Luminex)
Assay type: cell-based, human
Settings: 6 h, normalized to GAPDH, above DMSO treated cells; for fold induction at 3.75 µM: Homo sapiens, 3.75 μM compound, read-out: Fold Change of HMOX1 mRNA expression at 3.75 μM; for Fold Change of HMOX1 mRNA expression (at 3 μM): 3 μM compound; for Fold Change of HMOX1 mRNA expression (at 10 μM): 10 μM compound
Experimental: Oxidative Stress Gene Expression (mRNA) Protocol
Cell Culture. Normal Human Fibroblast (NHLF), were obtained from Lonza. Cultures of cells were maintained in Fibroblast Growth Medium (FGM-2) medium supplemented with 2% fetal bovine serum (FBS), Fibroblast Growth Factor (hFGF-B) 0.5 ml, Insulin 0.5 ml, gentamicin/amphotericin-B 0.5 mL at 37° C. in a humidified atmosphere of 5% CO2. Primary isolates of cell are cultured in T-225 flasks (Corning) as per instructions from the vendor. Cells are grown to 80% confluence before harvesting. Cells are harvested by first washing with 5 mL of Hepes buffered saline solution (Lonza). The buffered salt solution is aspirated and then 5 mL of a solution of Trypsin-EDTA is added to detach the cells from the culture flask. To this mixture 5 mL of Trypsin neutralization solution (Lonza) is added Trypsin. The mixture is centrifuged at 500×g for 10 minutes at 4° C. The cell pellet is resuspended to a final concentration of one million cells per milliliter in fetal bovine serum containing 6% DMSO. The cells are then dispensed into cyrovials and frozen in liquid nitrogen for storage.
Heme oxygenase mRNA expression. Secondary growth of NHLF cells are used for all assays. Cell are thawed and then placed into culture in T225 flasks. The cells are grown to 80% confluency and harvested by washing once with HEPES buffered saline solution and then trypsinized. Equal numbers (7×10^3 cells per well) of NHLF cells were plated in 96 well tissue culture plates (Corning). Cells were incubated overnight in FGM-2 medium prior to exposure to compound. Cells were treated with either DMSO or a compound of the Examples above for 6 h. Preparation of cell lysates was carried out according to instructions using the Quantigene Reagent system 2.0 protocol (Panomics). Heme oxygenase mRNA induction was detected from cell lysate using the Quantigene Plex 2.0 Assay Kit (Panomics) on the Luminex platform (BIO-RAD). Expression of GAPDH mRNA was used as the internal control for the Quantigen Plex 2.0 Assay. The data in Table 1 represents the fold change of heme oxygenase mRNA expression, normalized to control values, above DMSO treated cells.

SMILES | fold induction at 3.75 µM | other results
CCOC(=O)c1cnc2c(OC)cccc2c1S(C)(=O)=O [Example 1, 4-methanesulfonyl-8-methoxy-quinoline-3-carboxylic acid ethyl ester] | 3.4 | –
CCOC(=O)c1cnc2c(OC)cccc2c1S(=O)(=O)C1CCOC1C (centres unmarked) [Example 2, 8-Methoxy-4-(2-methyl-tetrahydro-furan-3-sulfonyl)-quinoline-3-carboxylic acid ethyl ester] | 48.6 | –
CCOC(=O)c1cnc2c(OC)cccc2c1S(=O)(=O)C1CCCCC1 [Example 3, 4-Cyclohexanesulfonyl-8-methoxy-quinoline-3-carboxylic acid ethyl ester] | – | Fold Change of HMOX1 mRNA expression (at 3 μM): 6.7 (at 3 μM) fold
CCOC(=O)c1cnc2c(OC)cccc2c1S(=O)(=O)c1ccoc1C [Example 4, 8-Methoxy-4-(2-methyl-furan-3-sulfonyl)-quinoline-3-carboxylic acid ethyl ester] | 5.8 | –
CCOC(=O)c1cnc2c(OC)cccc2c1S(=O)(=O)Cc1ccoc1 [Example 5, 4-(Furan-3-ylmethanesulfonyl)-8-methoxy-quinoline-3-carboxylic acid ethyl ester] | – | Fold Change of HMOX1 mRNA expression (at 10 μM): 2.0 (at 10 μM) fold
CCOC(=O)c1cnc2ccccc2c1S(=O)(=O)C1CCOC1C (centres unmarked) [Example 6, 4-(2-Methyl-tetrahydro-furan-3-sulfonyl)-quinoline-3-carboxylic acid ethyl ester] | 64.7 | –
CCCC(=O)c1cnc2c(OC)cccc2c1S(=O)(=O)C1CCOC1C (centres unmarked) [Example 7, 1-[8-methoxy-4-(2-methyl-tetrahydro-furan-3-sulfonyl)-quinolin-3-yl]-butan-1-one] | – | Fold Change of HMOX1 mRNA expression (at 10 μM): 2.8 (at 10 μM) fold
COc1cccc2c(S(=O)(=O)C3CCOC3C)c(C(=O)OC3CCCCC3)cnc12 (centres unmarked) [Example 8, 8-Methoxy-4-(2-methyl-tetrahydro-furan-3-sulfonyl)-quinoline-3-carboxylic acid cyclohexyl ester] | – | Fold Change of HMOX1 mRNA expression (at 3 μM): 4.5 (at 3 μM) fold
COc1cccc2c(S(=O)(=O)C3CCOC3C)c(C(=O)OCC3CCCCC3)cnc12 (centres unmarked) [Example 9, 8-Methoxy-4-(2-methyl-tetrahydro-furan-3-sulfonyl)-quinoline-3-carboxylic acid cyclohexylmethyl ester] | – | Fold Change of HMOX1 mRNA expression (at 3 μM): 2 (at 3 μM) fold
COCCCOC(=O)c1cnc2c(OC)cccc2c1S(=O)(=O)C1CCOC1C (centres unmarked) [Example 10, 8-Methoxy-4-(2-methyl-tetrahydro-furan-3-sulfonyl)-quinoline-3-carboxylic acid 3-methoxy-propyl ester] | 28.5 | –
COc1cccc2c(S(=O)(=O)C3CCOC3C)c(C(=O)OCC3CCCO3)cnc12 (centres unmarked) [Example 11, 8-Methoxy-4-(2-methyl-tetrahydro-furan-3-sulfonyl)-quinoline-3-carboxylic acid tetrahydro-furan-2-ylmethyl ester] | – | Fold Change of HMOX1 mRNA expression (at 3 μM): 2.7 (at 3 μM) fold
COCCCOC(=O)c1cnc2c(OC)cccc2c1S(=O)(=O)c1ccoc1C [Example 12, 8-Methoxy-4-(2-methyl-furan-3-sulfonyl)-quinoline-3-carboxylic acid 3-methoxy-propyl ester] | 15.3 | –
COCCCOC(=O)c1cnc2c(OC)cccc2c1S(=O)(=O)Cc1ccoc1 [Example 13, 4-(Furan-3-ylmethanesulfonyl)-8-methoxy-quinoline-3-carboxylic acid 3-methoxy-propyl ester] | 17.2 | –
COCCCOC(=O)c1cnc2ccccc2c1S(=O)(=O)C1CCOC1C (centres unmarked) [Example 14, 4-(2-Methyl-tetrahydro-furan-3-sulfonyl)-quinoline-3-carboxylic acid 3-methoxy-propyl ester] | 52.4 | –
COc1cccc2c(S(=O)(=O)c3ccoc3C)c(C(=O)OCC3CCCO3)cnc12 (centres unmarked) [Example 15, 8-Methoxy-4-(2-methyl-furan-3-sulfonyl)-quinoline-3-carboxylic acid tetrahydro-furan-2-ylmethyl ester] | 4.4 | –
COc1cccc2c(S(=O)(=O)Cc3ccoc3)c(C(=O)OCC3CCCO3)cnc12 (centres unmarked) [Example 16, 4-(Furan-3-ylmethanesulfonyl)-8-methoxy-quinoline-3-carboxylic acid tetrahydro-furan-2-ylmethyl ester] | 2.3 | –

SMILES | fold induction at 3.75 µM | other results
CC1OCCC1S(=O)(=O)c1c(C(=O)OCC2CCCO2)cnc2ccccc12 (centres unmarked) [Example 17, 4-(2-Methyl-tetrahydro-furan-3-sulfonyl)-quinoline-3-carboxylic acid tetrahydro-furan-2-ylmethyl ester] | 7.8 | –
CCCCCOC(=O)c1cnc2c(OC)cccc2c1S(=O)(=O)c1ccoc1C [Example 18, 8-Methoxy-4-(2-methyl-furan-3-sulfonyl)-quinoline-3-carboxylic acid pentyl ester] | 10.2 | –
COc1cccc2c(S(=O)(=O)c3ccoc3C)c(C(=O)OCC3CCCC3)cnc12 [Example 19, 8-Methoxy-4-(2-methyl-furan-3-sulfonyl)-quinoline-3-carboxylic acid cyclopentylmethyl ester] | 12.6 | –
CC1OCCC1Sc1cnc2ccccc2c1S(=O)(=O)C1CCOC1C (centres unmarked) [Example 20, 4-(2-methyl-tetrahydro-furan-3-sulfonyl)-3-(2-methyl-tetrahydro-furan-3-ylsulfanyl)-quinoline] | 25.9 | –
COCCCOC(=O)c1cnccc1S(=O)(=O)C1CCOC1C (centres unmarked) [Example 21, 4-(2-Methyl-tetrahydro-furan-3-sulfonyl)-nicotinic acid 3-methoxy-propyl ester] | – | Fold Change of HMOX1 mRNA expression (at 10 μM): 6.0 (at 10 μM) fold
COCCCOC(=O)c1c[n+]([O-])ccc1S(=O)(=O)C1CCOC1C (centres unmarked) [Example 22, 4-(2-Methyl-tetrahydro-furan-3-sulfonyl)-1-oxy-nicotinic acid 3-methoxy-propyl ester] | – | Fold Change of HMOX1 mRNA expression (at 10 μM): 5.6 (at 10 μM) fold
CCCS(=O)(=O)c1ccncc1C(=O)OCCCOC [Example 23, 4-(Propane-1-sulfonyl)-nicotinic acid 3-methoxy-propyl ester] | 4.2 | –
COCCCOC(=O)c1cnccc1S(=O)(=O)CC1CCCCC1 [Example 24, 4-Cyclohexylmethanesulfonyl-nicotinic acid 3-methoxy-propyl ester] | 5.3 | –
COCC#Cc1cnc2ccccc2c1S(=O)(=O)C1CCOC1C (centres unmarked) [Example 25, 3-(3-methoxy-prop-1-ynyl)-4-(2-methyl-tetrahydro-furan-3-sulfonyl)-quinoline] | 13 | –
CCOC(=O)/C=C/c1cnc2ccccc2c1S(=O)(=O)C1CCOC1C (centres unmarked) [Example 26, (E)-3-[4-(2-methyl-tetrahydro-furan-3-sulfonyl)-quinolin-3-yl]acrylic acid ethyl ester] | 13.2 | –
CC1OCCC1S(=O)(=O)c1c(-c2ccc(C(F)(F)F)cc2)cnc2ccccc12 (centres unmarked) [Example 27, 3-(4-trifluoromethyl-phenyl)-4-(2-methyl-tetrahydro-furan-3-sulfonyl)-quinoline] | – | Fold Change of HMOX1 mRNA expression (at 2.5 μM) (2.5 μM compound): 27.5 (at 2.5 μM) fold
COc1ccc(-c2cnc3ccccc3c2S(=O)(=O)C2CCOC2C)cc1 (centres unmarked) [Example 28, 3-(4-methoxy-phenyl)-4-(2-methyl-tetrahydro-furan-3-sulfonyl)-quinoline] | 12.7 | –
CCCS(=O)(=O)c1cnc2ccc(OC)cc2c1NC1CCCC1 [Example 29, cyclopentyl-[6-methoxy-3-(propane-1-sulfonyl)-quinolin-4-yl]amine] | – | Fold Change of HMOX1 mRNA expression (at 3 μM): 4.0 (at 3 μM) fold
CCCS(=O)(=O)c1cnc2ccc(OC)cc2c1NC1CCCCC1 [Example 30, cyclohexyl-[6-methoxy-3-(propane-1-sulfonyl)-quinolin-4-yl]-amine] | – | Fold Change of HMOX1 mRNA expression (at 3 μM): 4.0 (at 3 μM) fold
CCCS(=O)(=O)c1cnc2c(OC(F)(F)F)cccc2c1NC1CCCC1 [Example 31, cyclopentyl-[3-(propane-1-sulfonyl)-8-trifluoromethoxy-quinolin-4-yl]-amine] | – | Fold Change of HMOX1 mRNA expression (at 3 μM): 4.0 (at 3 μM) fold
CCCS(=O)(=O)c1cnc2c(OC(F)(F)F)cccc2c1NC1CCCCC1 [Example 32, cyclohexyl-[3-(propane-1-sulfonyl)-8-trifluoromethoxy-quinolin-4-yl]-amine] | 9.8 | –
